Data set [1] is filed under the species Homo sapiens. Description: Selectivity ratio for human histamine H3 receptor over human histamine H4 receptor.
For data set [2], the species on record is Homo sapiens. The experiment in a line: Selectivity ratio for human histamine H3 receptor over human histamine H1 receptor.
Data set [3] can be described thus: Metabolic stability in mouse liver microsomes. Type of data set: ADME, Microsome. (Liver microsomes are vesicles of endoplasmic reticulum, rich in cytochrome P450 enzymes.)
A further data set has as its target T1, Cytochrome P450 1A2 (Homo sapiens, UniProt P05177).
T1 sequence (P05177 whole entry): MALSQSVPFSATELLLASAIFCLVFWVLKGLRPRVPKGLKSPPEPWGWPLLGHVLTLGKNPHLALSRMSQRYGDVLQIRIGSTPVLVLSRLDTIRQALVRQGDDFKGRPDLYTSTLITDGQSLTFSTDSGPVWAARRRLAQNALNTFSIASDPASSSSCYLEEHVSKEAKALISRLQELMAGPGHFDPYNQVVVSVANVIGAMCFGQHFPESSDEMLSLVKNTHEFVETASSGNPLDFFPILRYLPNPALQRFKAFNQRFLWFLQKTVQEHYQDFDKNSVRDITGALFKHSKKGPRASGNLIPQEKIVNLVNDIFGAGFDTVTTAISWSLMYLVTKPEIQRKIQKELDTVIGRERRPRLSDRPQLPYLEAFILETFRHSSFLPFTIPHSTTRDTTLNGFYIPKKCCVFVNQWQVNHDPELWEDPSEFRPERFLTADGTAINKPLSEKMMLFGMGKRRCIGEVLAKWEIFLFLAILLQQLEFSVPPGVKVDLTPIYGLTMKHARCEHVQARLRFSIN
Description: Inhibition of CYP1A2 (unknown origin). Type of data set: ADME. Particulars: for inhibition (INH): human; call rule not given here.

Data set [4] has as its system Liver microsome. Description: Metabolic stability in dog liver microsomes. The format is ADME, Canis lupus familiaris.
For data set [5], the target named is T2, Histamine H3 receptor (Homo sapiens, UniProt Q9Y5N1). The experiment in a line: Displacement of [3H]NAMH from human histamine H3 receptor transfected in CHO cells. The format is cell-based.
The test system of data set [6] is Liver microsome. Description: Metabolic stability in rat liver microsomes. The format is ADME.
The subject of data set [7] is Liver microsome. Description: Metabolic stability in human liver microsomes. Type of data set: ADME.
Data set [8] addresses Histamine H3 receptor (Rattus norvegicus, UniProt Q9QYN8). Description: Displacement of [3H]NAMH from rat histamine H3 receptor transfected in CHO cells. Type of data set: cell-based. On the technique in general: Displacement assays read how much labelled ligand stays bound in the presence of the test substance.
Another data set deals with Cytochrome P450 3A4 (Homo sapiens, UniProt P08684). Description: Inhibition of CYP3A4 (unknown origin). Type of data set: ADME. Particulars: for inhibition (INH): human.
For data set [9], the species on record is Homo sapiens. The experiment in a line: Selectivity ratio for human histamine H3 receptor over human histamine H2 receptor.
The target in a further data set is Cytochrome P450 2C19 (Homo sapiens, UniProt P33261). The experiment in a line: Inhibition of CYP2C19 (unknown origin). Particulars: for inhibition (INH): human. The format is ADME.
In a further data set the target is Cytochrome P450 2D6 (Homo sapiens, UniProt P10635). The experiment in a line: Inhibition of CYP2D6 (unknown origin). The format is ADME. Particulars: for inhibition (INH): human.
The target of another data set is Cytochrome P450 2C9 (Homo sapiens, UniProt P11712). The experiment in a line: Inhibition of CYP2C9 (unknown origin). The format is ADME. Conditions: for inhibition (INH): human.
Data set [10] in a line: Terminal half life in rat at 1 mg/kg, iv. Also noted: dose 1 mg/kg, route intravenous. Type of data set: ADME, organism-based. Conditions: in vivo, read-out: beta t1/2 (converted).
Data set [11] deals with T2, Histamine H3 receptor. Description: Inverse agonist activity at human histamine H3 receptor by [35S]GTPgammaS binding assay. The format is functional.
Data set [12] has as its target Voltage-gated inwardly rectifying potassium channel KCNH2 (Homo sapiens, UniProt Q12809). The experiment in a line: Inhibition of human ERG channel by patch clamp technique. On the technique in general: In patch-clamp work, channel activity is measured electrically.
Data set [13] concerns the target Histamine H4 receptor (Homo sapiens) (UniProt Q9H3N8). The experiment in a line: Inhibition of human histamine H4 receptor at 10 uM.
In data set [14] the test system is Rattus norvegicus. Description: AUC in rat at 5 mg/kg, po. Conditions: in vivo. The format is ADME, organism-based, Plasma. Also noted: dose 5 mg/kg, route oral.
Data set [15] relates to Rattus norvegicus. The experiment in a line: Oral bioavailability in rat at 5 mg/kg. Type of data set: ADME, organism-based. Particulars: in vivo.
The nature of data set [16]: Half life in dog liver microsomes. The format is ADME, Canis lupus familiaris.
The nature of data set [17]: Cmax in rat at 5 mg/kg, po. The format is ADME, organism-based. Also noted: dose 5 mg/kg, route oral. Particulars: in vivo.
Data set [18] in a line: Half life in human liver microsomes. The format is ADME.
Data set [19] has as its target Sodium-dependent dopamine transporter (Homo sapiens) (UniProt Q01959). Description: Inhibition of dopamine transporter (unknown origin) at 10 uM.
A short description of data set [20]: Half life in mouse liver microsomes. Type of data set: ADME, Microsome.
Data set [21] in a line: Volume of distribution at steady state in rat at 1 mg/kg, iv. The format is ADME, organism-based. Also noted: dose 1 mg/kg, route intravenous. Particulars: in vivo, read-out: Vdss.
The target in data set [22] is Histamine H1 receptor (Homo sapiens) (UniProt P35367). Description: Inhibition of human histamine H1 receptor at 10 uM.
Data set [23] deals with Histamine H2 receptor (Homo sapiens) (UniProt P25021). The experiment in a line: Inhibition of human histamine H2 receptor at 10 uM.
Data set [24] is described as follows: Ratio of drug uptake in brain to plasma in rat at 10 mg/kg, ip after 6 hrs. On the set-up: dose 10 mg/kg, route intraperitoneal. Type of data set: ADME, organism-based. Conditions: read-out: BPR.
Data set [25] can be described thus: Half life in rat liver microsomes. The format is ADME.
Data set [26] can be described thus: Half life in monkey liver microsomes. Type of data set: ADME, Macaca mulatta, Microsome. Conditions: rhesus monkey.

These results are taken from ChEMBL document CHEMBL3120141, “Discovery of (1R,6S)-5-[4-(1-cyclobutyl-piperidin-4-yloxy)-phenyl]-3,4-diaza-bicyclo[4.1.0]hept-4-en-2-one (R,S-4a): histamine H(3) receptor inverse agonist demonstrating potent cognitive enhancing and wake promoting activity” (Bioorg Med Chem Lett, 2014).

Chain of Cytochrome P450 2C19 (P33261 whole entry): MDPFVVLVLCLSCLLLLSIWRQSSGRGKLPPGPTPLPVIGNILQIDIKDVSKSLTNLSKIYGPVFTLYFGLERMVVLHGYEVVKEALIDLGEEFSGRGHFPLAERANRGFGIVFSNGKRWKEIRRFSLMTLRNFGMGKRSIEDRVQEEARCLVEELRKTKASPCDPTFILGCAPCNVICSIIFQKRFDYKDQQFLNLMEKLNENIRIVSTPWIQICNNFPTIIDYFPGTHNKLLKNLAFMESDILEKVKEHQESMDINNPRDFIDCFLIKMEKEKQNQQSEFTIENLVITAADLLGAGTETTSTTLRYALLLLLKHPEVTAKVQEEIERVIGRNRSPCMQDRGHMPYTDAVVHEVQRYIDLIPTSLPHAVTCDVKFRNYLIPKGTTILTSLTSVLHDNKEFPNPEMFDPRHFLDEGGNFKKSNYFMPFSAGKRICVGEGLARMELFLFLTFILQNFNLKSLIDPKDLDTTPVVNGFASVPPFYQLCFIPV
Chain of Histamine H3 receptor (Rattus norvegicus, UniProt Q9QYN8) (Q9QYN8 whole entry): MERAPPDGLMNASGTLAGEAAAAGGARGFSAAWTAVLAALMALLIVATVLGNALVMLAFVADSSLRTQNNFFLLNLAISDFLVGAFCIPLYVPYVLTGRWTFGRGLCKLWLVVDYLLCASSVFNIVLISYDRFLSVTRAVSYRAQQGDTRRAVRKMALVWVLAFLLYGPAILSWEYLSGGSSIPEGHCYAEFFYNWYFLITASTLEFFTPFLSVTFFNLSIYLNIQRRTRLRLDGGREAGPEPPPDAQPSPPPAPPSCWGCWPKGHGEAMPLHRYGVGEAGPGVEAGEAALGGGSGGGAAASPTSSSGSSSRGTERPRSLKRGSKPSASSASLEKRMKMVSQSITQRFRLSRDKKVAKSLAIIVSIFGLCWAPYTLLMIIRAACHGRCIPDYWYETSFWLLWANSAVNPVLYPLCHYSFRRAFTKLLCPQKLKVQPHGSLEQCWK
Chain of Cytochrome P450 2D6 (P10635 whole entry): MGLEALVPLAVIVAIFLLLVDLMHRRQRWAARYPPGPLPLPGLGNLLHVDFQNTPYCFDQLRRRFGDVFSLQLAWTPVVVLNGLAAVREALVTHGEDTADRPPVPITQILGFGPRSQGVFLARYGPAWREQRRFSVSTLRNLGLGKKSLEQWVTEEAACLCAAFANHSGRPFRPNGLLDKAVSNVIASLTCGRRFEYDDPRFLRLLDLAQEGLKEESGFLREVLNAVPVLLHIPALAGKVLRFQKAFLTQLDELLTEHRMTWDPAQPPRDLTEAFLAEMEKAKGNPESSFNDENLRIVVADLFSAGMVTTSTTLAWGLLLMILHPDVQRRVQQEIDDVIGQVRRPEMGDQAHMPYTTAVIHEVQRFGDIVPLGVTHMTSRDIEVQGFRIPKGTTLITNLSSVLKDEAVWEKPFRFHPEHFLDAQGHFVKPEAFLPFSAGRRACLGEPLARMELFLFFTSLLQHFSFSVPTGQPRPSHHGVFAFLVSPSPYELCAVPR
Chain of Cytochrome P450 2C9 (P11712 whole entry): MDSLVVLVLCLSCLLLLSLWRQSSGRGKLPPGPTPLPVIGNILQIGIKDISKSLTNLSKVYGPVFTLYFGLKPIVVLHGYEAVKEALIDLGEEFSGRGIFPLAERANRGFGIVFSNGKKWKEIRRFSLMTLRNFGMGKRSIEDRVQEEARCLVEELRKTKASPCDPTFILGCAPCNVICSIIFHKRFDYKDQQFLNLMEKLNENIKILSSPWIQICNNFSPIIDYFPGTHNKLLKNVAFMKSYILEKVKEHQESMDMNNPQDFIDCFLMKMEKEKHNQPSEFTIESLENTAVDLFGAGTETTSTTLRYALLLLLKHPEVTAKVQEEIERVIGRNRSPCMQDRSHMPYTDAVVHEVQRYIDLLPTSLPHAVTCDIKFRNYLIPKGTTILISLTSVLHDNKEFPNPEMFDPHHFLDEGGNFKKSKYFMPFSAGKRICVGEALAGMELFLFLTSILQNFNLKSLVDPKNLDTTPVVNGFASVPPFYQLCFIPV
Chain of Cytochrome P450 3A4 (P08684 whole entry): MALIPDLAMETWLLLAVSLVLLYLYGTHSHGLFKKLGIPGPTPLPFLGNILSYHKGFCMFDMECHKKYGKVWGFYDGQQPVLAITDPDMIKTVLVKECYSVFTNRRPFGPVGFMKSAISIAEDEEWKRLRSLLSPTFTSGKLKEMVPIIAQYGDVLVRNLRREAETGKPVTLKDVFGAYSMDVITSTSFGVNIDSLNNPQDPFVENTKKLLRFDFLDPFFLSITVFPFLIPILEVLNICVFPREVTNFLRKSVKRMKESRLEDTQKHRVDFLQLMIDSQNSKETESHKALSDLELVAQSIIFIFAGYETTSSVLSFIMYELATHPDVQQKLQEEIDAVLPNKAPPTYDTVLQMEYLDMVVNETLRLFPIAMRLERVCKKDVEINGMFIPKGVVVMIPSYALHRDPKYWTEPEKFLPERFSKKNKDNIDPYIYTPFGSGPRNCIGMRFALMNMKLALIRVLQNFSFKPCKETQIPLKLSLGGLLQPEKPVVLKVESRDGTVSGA
T2 sequence (Q9Y5N1 whole entry): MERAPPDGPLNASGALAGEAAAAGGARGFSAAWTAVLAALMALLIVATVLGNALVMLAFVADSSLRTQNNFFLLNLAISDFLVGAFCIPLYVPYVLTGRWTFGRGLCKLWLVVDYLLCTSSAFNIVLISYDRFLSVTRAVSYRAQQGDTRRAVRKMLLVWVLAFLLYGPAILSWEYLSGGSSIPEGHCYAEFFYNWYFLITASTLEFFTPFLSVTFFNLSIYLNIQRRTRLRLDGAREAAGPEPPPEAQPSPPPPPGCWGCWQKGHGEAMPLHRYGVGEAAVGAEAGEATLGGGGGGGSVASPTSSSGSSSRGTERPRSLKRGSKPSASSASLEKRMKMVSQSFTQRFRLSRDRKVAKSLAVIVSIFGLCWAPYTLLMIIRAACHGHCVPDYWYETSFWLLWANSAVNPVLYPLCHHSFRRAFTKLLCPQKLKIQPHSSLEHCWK
Chain of Voltage-gated inwardly rectifying potassium channel KCNH2 (Q12809 whole entry): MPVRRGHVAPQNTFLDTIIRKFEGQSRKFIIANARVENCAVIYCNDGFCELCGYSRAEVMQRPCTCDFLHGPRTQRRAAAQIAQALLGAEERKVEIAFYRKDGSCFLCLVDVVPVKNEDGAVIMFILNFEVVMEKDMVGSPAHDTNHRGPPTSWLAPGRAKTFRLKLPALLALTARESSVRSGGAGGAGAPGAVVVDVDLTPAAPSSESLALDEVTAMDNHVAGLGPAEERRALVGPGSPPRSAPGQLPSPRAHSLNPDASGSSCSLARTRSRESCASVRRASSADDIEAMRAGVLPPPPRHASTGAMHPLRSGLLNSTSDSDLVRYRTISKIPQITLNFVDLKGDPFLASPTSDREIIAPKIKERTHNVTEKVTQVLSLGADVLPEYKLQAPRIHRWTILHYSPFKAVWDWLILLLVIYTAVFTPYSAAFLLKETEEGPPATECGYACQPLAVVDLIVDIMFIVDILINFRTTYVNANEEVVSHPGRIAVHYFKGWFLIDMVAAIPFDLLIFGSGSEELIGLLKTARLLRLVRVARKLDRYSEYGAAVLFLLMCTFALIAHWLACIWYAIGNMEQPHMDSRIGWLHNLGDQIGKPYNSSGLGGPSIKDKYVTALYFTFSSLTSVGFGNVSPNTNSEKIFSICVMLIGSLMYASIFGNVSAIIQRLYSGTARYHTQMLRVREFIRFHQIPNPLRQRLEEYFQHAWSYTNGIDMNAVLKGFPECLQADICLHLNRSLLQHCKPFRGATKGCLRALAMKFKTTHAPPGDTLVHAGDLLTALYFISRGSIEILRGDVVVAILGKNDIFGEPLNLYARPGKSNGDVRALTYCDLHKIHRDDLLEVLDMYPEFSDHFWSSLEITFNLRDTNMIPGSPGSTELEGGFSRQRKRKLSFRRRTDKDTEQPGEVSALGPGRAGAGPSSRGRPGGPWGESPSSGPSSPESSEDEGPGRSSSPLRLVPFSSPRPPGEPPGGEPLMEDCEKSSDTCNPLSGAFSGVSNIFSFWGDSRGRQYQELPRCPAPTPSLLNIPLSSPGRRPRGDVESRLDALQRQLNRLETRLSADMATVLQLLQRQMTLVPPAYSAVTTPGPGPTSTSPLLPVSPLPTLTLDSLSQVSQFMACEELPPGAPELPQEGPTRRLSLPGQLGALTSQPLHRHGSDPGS
Chain of Histamine H4 receptor (Homo sapiens) (Q9H3N8 whole entry): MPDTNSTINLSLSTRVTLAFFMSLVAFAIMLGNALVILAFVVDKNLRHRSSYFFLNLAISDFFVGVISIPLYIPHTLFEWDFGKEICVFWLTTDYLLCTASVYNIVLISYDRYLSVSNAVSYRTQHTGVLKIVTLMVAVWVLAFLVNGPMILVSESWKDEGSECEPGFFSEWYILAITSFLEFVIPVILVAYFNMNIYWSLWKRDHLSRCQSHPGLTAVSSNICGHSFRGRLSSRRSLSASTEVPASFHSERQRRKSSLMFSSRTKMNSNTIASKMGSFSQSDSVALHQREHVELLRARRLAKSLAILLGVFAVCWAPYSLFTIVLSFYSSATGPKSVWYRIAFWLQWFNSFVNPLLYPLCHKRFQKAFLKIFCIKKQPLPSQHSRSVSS
Chain of Histamine H2 receptor (Homo sapiens) (P25021 whole entry): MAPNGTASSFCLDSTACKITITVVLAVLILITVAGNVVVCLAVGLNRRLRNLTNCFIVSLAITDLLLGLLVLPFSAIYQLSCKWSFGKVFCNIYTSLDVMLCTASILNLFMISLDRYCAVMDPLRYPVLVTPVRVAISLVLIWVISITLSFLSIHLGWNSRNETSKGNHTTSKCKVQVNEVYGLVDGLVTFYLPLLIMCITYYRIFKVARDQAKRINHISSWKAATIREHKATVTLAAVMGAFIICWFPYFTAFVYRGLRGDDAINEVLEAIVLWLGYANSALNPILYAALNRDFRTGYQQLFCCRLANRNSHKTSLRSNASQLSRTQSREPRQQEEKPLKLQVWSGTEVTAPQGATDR

As to `CC(C)N1CCC(Oc2ccc(C3=NNC(=O)C4CC34)cc2)CC1` (racemic), the Selectivity ratio in the data set filed under Homo sapiens [1], in the data set listed under Homo sapiens [2] and in the data set filed under Homo sapiens [9] was more than 1000 in each case. Also, the Stability result (in data set [3]; in the data set on Liver microsome [4]; in the data set on Liver microsome [6]; in the data set on Liver microsome [7]) was “Stable” in each case. Further, the “inhibition (INH)” value against Cytochrome P450 1A2, on Cytochrome P450 3A4, on Cytochrome P450 2C19, at Cytochrome P450 2D6 and on Cytochrome P450 2C9 was “Not Active” in each case. The Ki – broadly, a measure of affinity in units of concentration, obtained from inhibition or displacement – worked out at 9.1 nM at Histamine H3 receptor [5] and 51 nM on Histamine H3 receptor [8].

For `CC(C)N1N=C(c2ccc(OC3CCN(C4CCC4)CC3)cc2)C2CC2C1=O` (racemic), the Selectivity ratio in the data set listed under Homo sapiens [1], in the data set listed under Homo sapiens [2] and in the data set listed under Homo sapiens [9] was more than 1000 throughout. Moreover, the Ki worked out at 6.9 nM on Histamine H3 receptor [5] and 5.6 nM on Histamine H3 receptor [8].

On to `CC(C)N1CCC(Oc2ccc(C3=NN(C)C(=O)C4CC34)cc2)CC1` (racemic), for which the Selectivity ratio in the data set filed under Homo sapiens [1], in the data set filed under Homo sapiens [2] and in the data set listed under Homo sapiens [9] was more than 1000 in each case. The Ki at Histamine H3 receptor [5] stood at 4 nM; on Histamine H3 receptor [8], 17 nM.

Take `O=C1NN=C(c2ccc(OC3CCN(C4CCC4)CC3)cc2)C2CC12` (racemic): the Ki on Histamine H3 receptor [5] came out at 4.7 nM; at Histamine H3 receptor [8] it was 8.4 nM.

For `CCN1CCC(Oc2ccc(C3=NNC(=O)C4CC34)cc2)CC1` (racemic), the results for the Ki at Histamine H3 receptor [5] and on Histamine H3 receptor [8] were 173 nM and 228 nM, respectively.

Consider `O=C1C2CC2C(c2ccc(OC3CCN(C4CCC4)CC3)cc2)=NN1c1ccc(F)cc1` (racemic), for which the Selectivity ratio in the data set filed under Homo sapiens [1], in the data set listed under Homo sapiens [2] and in the data set filed under Homo sapiens [9] was more than 1000 throughout. Also, the Ki on Histamine H3 receptor [5] is 3.5 nM; on Histamine H3 receptor [8] it was 6.7 nM.

With `O=C1NN=C(c2ccc(OC3CCN(C4CCC4)CC3)cc2)[C@@H]2C[C@H]12`, the half-life was 96 min in data set [10]; more than 40 min in [16]; more than 40 min in data set [18]; more than 40 min in data set [20]; more than 40 min in [25]; more than 40 min in [26]. In addition, the EC50 (as a rule, the concentration giving half of the maximal effect) on Histamine H3 receptor [11] is 0.5 nM. Besides, the IC50 (commonly the concentration that inhibits the measured activity by half) in [12] is 6000 nM; at Cytochrome P450 1A2, more than 30000 nM; at Cytochrome P450 3A4, more than 30000 nM; against Cytochrome P450 2C19 it was more than 30000 nM; against Cytochrome P450 2D6, more than 30000 nM; against Cytochrome P450 2C9, more than 30000 nM. The inhibition (in general, the drop in the measured response relative to a control, in per cent) in data set [13] was less than 10%; in [19], 63%; in [22], less than 10%; in data set [23] it was less than 10%. Moreover, the Ki on Histamine H3 receptor [5] came out at 6.8 nM; at Histamine H3 receptor [8] it was 12 nM. Further, the AUC (commonly the area under the concentration-time curve, a measure of exposure) in the data set with Rattus norvegicus [14] was 5144 ng·h/mL. The same compound registered a F in the data set on Rattus norvegicus [15] of 66%. Besides, the peak level in data set [17] (Cmax) was 649 ng/mL. Also, the Vd in data set [21] is 3 L/kg. The Kp at 6 h in [24] was determined as 5.

As for `CN1N=C(c2ccc(OC3CCN(C4CCCC4)CC3)cc2)C2CC2C1=O` (racemic), the Selectivity ratio in the data set filed under Homo sapiens [1], in the data set listed under Homo sapiens [2] and in the data set filed under Homo sapiens [9] was more than 1000 throughout. For the same compound, the Ki on Histamine H3 receptor [5] stood at 3.6 nM; at Histamine H3 receptor [8], 5.7 nM.

For the compound `O=C1NN=C(c2ccc(OC3CCN(C4CCCC4)CC3)cc2)C2CC12` (racemic), the Selectivity ratio in the data set filed under Homo sapiens [1], in the data set filed under Homo sapiens [2] and in the data set listed under Homo sapiens [9] was more than 1000 in each case. Moreover, the Stability entry (in data set [3]; in the data set on Liver microsome [4]; with Liver microsome [6]; with Liver microsome [7]) was “Stable” in each case. Also, the “inhibition (INH)” value against Cytochrome P450 1A2, on Cytochrome P450 3A4, against Cytochrome P450 2C19, at Cytochrome P450 2D6 and at Cytochrome P450 2C9 was “Not Active” throughout. Also, the Ki on Histamine H3 receptor [5] was determined as 3.7 nM; at Histamine H3 receptor [8], 8.1 nM.

Consider `CCN1N=C(c2ccc(OC3CCN(C4CCC4)CC3)cc2)C2CC2C1=O` (racemic), for which the Selectivity ratio in the data set listed under Homo sapiens [1], in the data set listed under Homo sapiens [2] and in the data set listed under Homo sapiens [9] was more than 1000 in each case. Further, the inhibition constant Ki amounted to 4.5 nM on Histamine H3 receptor [5] and 8 nM at Histamine H3 receptor [8].
